A value given as a limit tells only on which side of the number the result lay.

A short description of data set [1]: Aqueous solubility of the compound in phosphate buffered saline at pH 7.1 by shake-flask method. The format is physicochemical.
Data set [2] addresses T1, Cannabinoid receptor 1 (Homo sapiens, UniProt P21554).
Description: Agonist activity at human cannabinoid CB1 receptor expressed in CHO cells co-expressing AP-1 response element after 5 hrs by luciferase reporter gene assay
Data set [3] is described as follows: Aqueous solubility of the compound in citrate buffer at pH 5 by shake-flask method. The format is physicochemical.
Data set [4] is described as follows: Aqueous solubility of the compound in phosphate buffered saline at pH 6.7 by shake-flask method. The format is physicochemical.
The nature of data set [5]: Aqueous solubility of the compound in phosphate buffered saline at pH 7.4 by shake-flask method. It is filed as physicochemical.
The target of another data set is Cannabinoid receptor 2 (Homo sapiens, UniProt P34972). The experiment in a line: Displacement of [3H]-CP55940 from human cannabinoid CB2 receptor expressed in Sf9 insect cells after 70 mins by scintillation counting. On the technique in general: In a radioligand displacement assay an active substance lowers the binding of a labelled ligand.
Cannabinoid receptor 2, sequence (P34972 whole entry): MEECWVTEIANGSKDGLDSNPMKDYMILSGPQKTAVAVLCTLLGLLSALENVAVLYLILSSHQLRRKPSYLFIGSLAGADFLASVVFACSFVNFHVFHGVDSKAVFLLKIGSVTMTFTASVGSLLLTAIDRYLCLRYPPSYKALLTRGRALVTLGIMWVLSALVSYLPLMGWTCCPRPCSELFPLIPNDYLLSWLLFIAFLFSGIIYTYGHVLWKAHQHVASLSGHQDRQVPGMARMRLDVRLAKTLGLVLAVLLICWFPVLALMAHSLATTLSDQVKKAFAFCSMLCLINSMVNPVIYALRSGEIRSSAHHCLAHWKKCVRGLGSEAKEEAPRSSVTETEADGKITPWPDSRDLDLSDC
In data set [6] the test system is Mus musculus. The data set is described as follows: Antinociceptive activity in iv dosed ICR mouse assessed as time taken for tail flick latency to return to within mean plus two standard deviations of baseline value following twice ED50 dose by tail flick latency test. The format is functional.
Data set [7] deals with T1, Cannabinoid receptor 1. The data set is described as follows: biochemical.
The species entered for data set [8] is Homo sapiens. The experiment in a line: Selectivity ratio of Ki for human ERG to Ki for human cannabinoid CB1 receptor.
For data set [9], the system named is Mus musculus. The data set is described as follows: Antinociceptive activity in ICR mouse assessed as inhibition of time spent licking formalin injected paw at 0.03 umol/kg, iv after 5 to 10 mins relative to control. The format is functional.
Data set [10] deals with Mus musculus. The experiment in a line: Antinociceptive activity in ICR mouse assessed as inhibition of time spent licking formalin injected paw at 0.1 umol/kg, iv after 20 to 30 mins relative to control. The format is functional.
Data set [11] can be described thus: Volume of distribution at steady state in ICR mouse plasma at 3 umol/kg, iv. The format is ADME, cell-free. The note with it: read-out: Vdss.
A short description of data set [12]: Cmax in ICR mouse brain at 3 umol/kg, iv. The format is ADME, tissue-based. On the set-up: dose 3 umol/kg, route intravenous.
The nature of data set [13]: Aqueous solubility of the compound in phosphate buffered saline at pH 7 by shake-flask method. The format is physicochemical.
Data set [14] in a line: Clearance in ICR mouse plasma at 3 umol/kg, iv. The format is ADME, cell-free.
The test system of data set [15] is Mus musculus. The data set is described as follows: Antinociceptive activity in ICR mouse assessed as increase of tail flick latency at 1 umol/kg, iv after 20 to 60 mins by tail flick latency test relative to control. It is filed as functional.
The subject of data set [16] is Mus musculus. The data set is described as follows: Antinociceptive activity in ICR mouse assessed as increase of tail flick latency at 0.1 umol/kg, iv after 20 to 60 mins by tail flick latency test relative to control. It is filed as functional.
Data set [17] in a line: Intrinsic clearance in mouse liver microsomes. It is filed as ADME. The following applies: read-out: CLH. In general terms: Microsomes from liver hold many membrane-bound enzymes, among them those of drug oxidation.
Data set [18] can be described thus: Tmax in ICR mouse brain at 3 umol/kg, iv. It is filed as ADME, tissue-based.
The test system of data set [19] is Mus musculus. The data set is described as follows: Antinociceptive activity in ICR mouse assessed as inhibition of time spent licking formalin injected paw at 0.3 umol/kg, iv after 20 to 30 mins relative to control. The format is functional.
The next data set relates to Brain. The data set is described as follows: AUC (0 to 1 hr) in ICR mouse brain at 3 umol/kg, iv. The format is ADME, tissue-based. Also noted: time < 1 hr, dose 3 umol/kg, route intravenous. The following applies: in vivo.
The subject of data set [20] is Mus musculus. The experiment in a line: Antinociceptive activity in ICR mouse assessed as increase of tail flick latency at 0.3 umol/kg, iv after 20 to 60 mins by tail flick latency test relative to control. It is filed as functional.
For data set [21], the species on record is Homo sapiens. The data set is described as follows: Selectivity ratio of Ki for human ERG to Ki for human cannabinoid CB2 receptor.
For data set [22], the system named is Mus musculus. The experiment in a line: Antinociceptive activity in ICR mouse assessed as inhibition of time spent licking formalin injected paw at 0.3 umol/kg, iv after 5 to 10 mins relative to control. It is filed as functional.
The nature of data set [23]: Ratio of Cmax in brain to plasma in ICR mouse at 3 umol/kg, iv. The note with it: brain and plasma, read-out: BPR. It is filed as ADME, cell-free.
In data set [24] the test system is Mus musculus. The data set is described as follows: Antinociceptive activity in ICR mouse assessed as inhibition of time spent licking formalin injected paw at 0.1 umol/kg, iv after 5 to 10 mins relative to control. It is filed as functional.
Data set [25] in a line: Cmax in ICR mouse plasma at 3 umol/kg, iv. Also noted: dose 3 umol/kg, route intravenous. It is filed as ADME, cell-free.
The test system of data set [26] is Mus musculus. The experiment in a line: Antinociceptive activity in iv dosed ICR mouse assessed as inhibition of time spent licking formalin injected paw after 5 to 30 mins. The format is functional, organism-based.
Data set [27] can be described thus: Intrinsic clearance in human liver microsomes. It is filed as ADME. The note with it: read-out: CLH.
The subject of data set [28] is Mus musculus. The data set is described as follows: Antinociceptive activity in ICR mouse assessed as inhibition of time spent licking formalin injected paw at 0.01 umol/kg, iv after 5 to 10 mins relative to control. It is filed as functional.
For data set [29], the system named is Mus musculus. The data set is described as follows: Antinociceptive activity in ICR mouse assessed as inhibition of time spent licking formalin injected paw at 0.03 umol/kg, iv after 20 to 30 mins relative to control. It is filed as functional.
In data set [30] the test system is Mus musculus. The data set is described as follows: Antinociceptive activity in ICR mouse assessed as inhibition of time spent licking formalin injected paw at 0.01 umol/kg, iv after 20 to 30 mins relative to control. It is filed as functional.
The subject of data set [31] is Mus musculus. The data set is described as follows: Antinociceptive activity in iv dosed ICR mouse assessed as increase of tail flick latency after 20 to 60 mins by tail flick latency test. The format is functional, organism-based. On the technique in general: Hot-plate and tail-flick tests time the reaction to a heat stimulus.
A short description of data set [32]: Elimination half life in ICR mouse plasma at 3 umol/kg, iv. The following applies: read-out: beta t1/2 (converted). It is filed as ADME, cell-free.
Data set [33] is described as follows: Tmax in ICR mouse plasma at 3 umol/kg, iv. It is filed as ADME, cell-free.
The nature of data set [34]: AUC in ICR mouse plasma at 3 umol/kg, iv. It is filed as ADME, cell-free.

T1 sequence (P21554 whole entry): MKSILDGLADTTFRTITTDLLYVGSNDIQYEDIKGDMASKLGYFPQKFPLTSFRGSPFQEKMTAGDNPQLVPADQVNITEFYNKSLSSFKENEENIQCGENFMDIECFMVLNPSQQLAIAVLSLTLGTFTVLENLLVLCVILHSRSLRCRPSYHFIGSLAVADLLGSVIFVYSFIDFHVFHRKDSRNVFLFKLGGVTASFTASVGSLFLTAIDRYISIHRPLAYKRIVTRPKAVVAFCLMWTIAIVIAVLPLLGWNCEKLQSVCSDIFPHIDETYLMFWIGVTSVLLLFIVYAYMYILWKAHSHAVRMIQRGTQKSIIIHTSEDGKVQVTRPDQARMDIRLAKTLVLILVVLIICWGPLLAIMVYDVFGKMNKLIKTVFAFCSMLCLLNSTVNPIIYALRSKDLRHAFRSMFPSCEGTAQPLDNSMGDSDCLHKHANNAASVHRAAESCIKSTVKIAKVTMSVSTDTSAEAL

By solubility (thermodynamic) is commonly meant the concentration in solution at equilibrium with solid. In general, EC50 refers to the concentration needed to bring the measured effect to its halfway point. A low value points to greater potency. Take `COc1cccc2c(C(=O)N3CCN(C)[C@H](C)C3)cn(CC3CCCCC3)c12.Cl`: the results for the solubility (thermodynamic) in [1] and in [3] were 88 µg/mL and 2860 µg/mL, respectively. Moreover, the EC50 at Cannabinoid receptor 1 [2] is 126 nM.
As for `CCN1CCN(C(=O)c2cn(CC3CCCCC3)c3cc(F)ccc23)CC1`, the EC50 at Cannabinoid receptor 1 [2] is 251 nM.
On the same count and under the same terms, the result for `Cc1cccc2c1c(C(=O)N1CCN(C)CC1)cn2CC1CCCCC1` reads more than 3160 nM.
Turning to `CCN1CCN(C(=O)c2cn(CC3CCCCC3)c3c(OC)cccc23)CC1.O=C(O)/C=C\C(=O)O`, the thermodynamic solubility in [3] was 3400 µg/mL; in data set [4], 216 µg/mL.
Turning to `CCN1CCN(C(=O)c2cn(CC3CCCCC3)c3c(Br)cccc23)CC1`, the response at Cannabinoid receptor 1 [2] was half-maximal at 794 nM (EC50).
Consider `CS(=O)(=O)O.O=C(Cc1ccccc1)N/N=C1\C(=O)N(CC2CCCCC2)c2cc(OCCN3CCOCC3)ccc21`, for which the thermodynamic solubility in data set [5] is less than 500 µg/mL.
In turn, `CCN1CCN(C(=O)c2cn(CCN3CCOCC3)c3c(OC)cccc23)CC1` displayed a concentration for a half-maximal effect (EC50) on Cannabinoid receptor 1 [2] of more than 3160 nM.
On to `CCN1CCN(C(=O)c2cn(CC3CCCCC3)c3c(OC)cccc23)CC1(C)C.Cl`, for which the thermodynamic solubility in data set [1] was determined as 181 µg/mL; in data set [3], 3830 µg/mL. The same compound showed an EC50 at Cannabinoid receptor 1 [2] of 126 nM.
A word on the Ki: it is a measure of affinity in units of concentration, obtained from inhibition or displacement. A low value points to tighter binding. The term inhibition in vivo denotes the relative decrease from the control value, in per cent. As a reminder, the Cmax is the peak of the concentration-time curve. As usually defined, the clearance is the volume of plasma or blood freed of the substance per unit of time. As a reminder, the Tmax is the time from dosing to the highest level. Take `COc1cccc2c(C(=O)N3C[C@@H](C)N(C)[C@@H](C)C3)cn(CC3CCCCC3)c12.Cl`: the Ki at Cannabinoid receptor 2 was 0.794 nM; at Cannabinoid receptor 1 [7], 1.26 nM. Further, the Time with Mus musculus [6] is 50 min. The Ratio Ki in the data set filed under Homo sapiens [8] and in the data set listed under Homo sapiens [21] was more than 100 each time. The values for the inhibition in vivo at 0.03 µmol/kg in the data set with Mus musculus [9] and in the data set with Mus musculus [29] were 49.5% and 86.9%, respectively. In addition, the inhibition in vivo at 0.1 µmol/kg was determined as 93.3% in the data set on Mus musculus [10] and 84% with Mus musculus [24]. In addition, in data set [11], the Vd was determined as 2 L/kg. For the same compound, the Cmax stood at 1620 ng/g in data set [12] and 593 ng/mL in data set [25]. The thermodynamic solubility in [13] is 12 µg/mL; in data set [3], more than 4000 µg/mL. The same compound came in with a clearance in data set [14] of 77.4 mL/min/kg. For the same compound, the results for the MPE with Mus musculus [15], in the data set with Mus musculus [16] and in the data set with Mus musculus [20] were 100%, 14.5% and 72.3%, respectively. For the same compound, the microsomal CLint in [17] and in data set [27] was more than 270 µL/min/mg each time. The Tmax in data set [18] and in data set [33] was 3 min each time. Also, the figures for the inhibition in vivo at 0.3 µmol/kg in the data set on Mus musculus [19] and in the data set on Mus musculus [22] were 99.8% and 97.8%, respectively. The AUC stood at 616 ng·h/g in the data set with Brain and 253 ng·h/mL in [34]. For the same compound, the Kp in [23] is 2.7. Also, the inhibition entry in the data set with Mus musculus [26] was “Dose-dependent effect”. Also, the inhibition in vivo at 0.01 µmol/kg was 16.4% in the data set with Mus musculus [28] and 7.8% in the data set on Mus musculus [30]. In the data set on Mus musculus [31], the Activity result is “Dose-dependent effect”. Moreover, in data set [32], the half-life was 19.2 min.
With `CCN1CCN(C(=O)c2cn(CC3CCCCC3)c3c(OC)cccc23)C[C@H]1C.Cl`, the figures for the thermodynamic solubility in data set [1] and in data set [3] were 74 µg/mL and more than 4000 µg/mL, respectively. The EC50 at Cannabinoid receptor 1 [2] is 631 nM.
Regarding `Cc1ccc2c(c1)c(C(=O)N1CCN(C)CC1)cn2CC1CCCCC1`, the half-maximal effective concentration (EC50) on Cannabinoid receptor 1 [2] was 2000 nM. This counts as single-digit micromolar.
On the same count and under the same terms, the result for `CCN1CCN(C(=O)c2cn(CC3CCCCC3)c3cc(Cl)ccc23)CC1` reads 1580 nM; that for `CCN1CCN(C(=O)c2cn(CC3CCCCC3)c3ccc(OC)cc23)CC1`, more than 3160 nM; that for `CCN1CCN(C(=O)c2cn(CC3CCCCC3)c3cc(Br)ccc23)CC1`, 1000 nM.
The compound `CN(C)CCN(C)C(=O)c1cn(CC2CCCCC2)c2ccccc12` displayed a half-maximal effective concentration (EC50) on Cannabinoid receptor 1 [2] of more than 3160 nM.
On the same count and under the same terms, the result for `O=C(N/N=C1\C(=O)N(Cc2ccccc2)c2ccccc21)c1ccccc1` reads 631 nM; that for `CCN1CCN(C(=O)c2cn(CC3CCCCC3)c3cccc(F)c23)CC1`, 251 nM.

Values taken from ChEMBL document CHEMBL3390831, “Design, synthesis, and structureactivity relationships of indole-3-carboxamides as novel water soluble cannabinoid CB1 receptor agonists” (Medchemcomm, 2010).
